Data reported in the supplement of paper PMC10307832.

Legend:
Experiment in all cases: relative viability (nuclei count vs DMSO), 5 days (fraction); higher = more cells survive
Dinaciclib = compound: CCc1cnn2c(NCc3ccc[n+]([O-])c3)cc(N3CCCC[C@H]3CCO)nc12 [Dinaciclib]
How it was run: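 Five library-drug doses spaced by √10 were pinned onto vehicle-anchored 1536-well plates of lung cancer cell lines that had been kept overnight at 37 °C. Cells went 5 days without medium change, then were fixed, permeabilised and Hoechst-stained together, imaged at 4× and counted by MetaXpress. Viability is the ratio of treated-well to vehicle-well nuclei, taken as a median over plates. Plates required control CV below 25% and at least one doubling.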

Dinaciclib + Trametinib = compound: CCc1cnn2c(NCc3ccc[n+]([O-])c3)cc(N3CCCC[C@H]3CCO)nc12 [Dinaciclib] + CC(=O)Nc1cccc(-n2c(=O)n(C3CC3)c(=O)c3c(Nc4ccc(I)cc4F)n(C)c(=O)c(C)c32)c1 [Trametinib] (partner 0.02 µM)
How it was run: (§1)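 A single step with final 0.05% Triton X-100, 1% formaldehyde and 1 ug/ml Hoechst fixed the cells and stained nuclei 5 days after treatment. Lung cancer cell lines in 1536-well plates had been treated by pin tool the day after seeding with one drug alone or a fixed anchor-drug dose plus five library-drug doses (not always all listed) in √10 steps, and nuclei were counted on 4× images. Relative viability is the ratio of nuclei in treated wells to nuclei in vehicle wells, taken as the median of duplicate plates.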

Dinaciclib + Palbociclib = compound: CCc1cnn2c(NCc3ccc[n+]([O-])c3)cc(N3CCCC[C@H]3CCO)nc12 [Dinaciclib] + CC(=O)c1c(C)c2cnc(Nc3ccc(N4CCNCC4)cn3)nc2n(C2CCCC2)c1=O [Palbociclib] (partner 0.5 µM)
How it was run: as §1

Dinaciclib + Luminespib = compound: CCc1cnn2c(NCc3ccc[n+]([O-])c3)cc(N3CCCC[C@H]3CCO)nc12 [Dinaciclib] + CCNC(=O)c1noc(-c2cc(C(C)C)c(O)cc2O)c1-c1ccc(CN2CCOCC2)cc1 [Luminespib] (partner 0.01 µM)
How it was run: as §1

Dinaciclib + Foretinib = compound: CCc1cnn2c(NCc3ccc[n+]([O-])c3)cc(N3CCCC[C@H]3CCO)nc12 [Dinaciclib] + COc1cc2c(Oc3ccc(NC(=O)C4(C(=O)Nc5ccc(F)cc5)CC4)cc3F)ccnc2cc1OCCCN1CCOCC1 [Foretinib] (partner 0.25 µM)
How it was run: as §1

Dinaciclib + OSI-027 = compound: CCc1cnn2c(NCc3ccc[n+]([O-])c3)cc(N3CCCC[C@H]3CCO)nc12 [Dinaciclib] + COc1cccc2cc(-c3nc([C@H]4CC[C@H](C(=O)O)CC4)n4ncnc(N)c34)[nH]c12 [OSI-027] (partner 0.5 µM)
How it was run: as §1

Dinaciclib + Tozasertib = compound: CCc1cnn2c(NCc3ccc[n+]([O-])c3)cc(N3CCCC[C@H]3CCO)nc12 [Dinaciclib] + Cc1cc(Nc2cc(N3CCN(C)CC3)nc(Sc3ccc(NC(=O)C4CC4)cc3)n2)n[nH]1 [Tozasertib] (partner 0.1 µM)
How it was run: as §1

Dinaciclib + Dasatinib = compound: CCc1cnn2c(NCc3ccc[n+]([O-])c3)cc(N3CCCC[C@H]3CCO)nc12 [Dinaciclib] + Cc1nc(Nc2ncc(C(=O)Nc3c(C)cccc3Cl)s2)cc(N2CCN(CCO)CC2)n1 [Dasatinib] (partner 0.075 µM)
How it was run: as §1

Dinaciclib + Phenformin = compound: CCc1cnn2c(NCc3ccc[n+]([O-])c3)cc(N3CCCC[C@H]3CCO)nc12 [Dinaciclib] + N=C(N)NC(=N)NCCc1ccccc1 [Phenformin] (partner 250 µM)
How it was run: as §1

Dinaciclib + AZD7762 = compound: CCc1cnn2c(NCc3ccc[n+]([O-])c3)cc(N3CCCC[C@H]3CCO)nc12 [Dinaciclib] + NC(=O)Nc1cc(-c2cccc(F)c2)sc1C(=O)N[C@H]1CCCNC1 [AZD7762] (partner 0.2 µM)
How it was run: as §1

Dinaciclib + Pemetrexed = compound: CCc1cnn2c(NCc3ccc[n+]([O-])c3)cc(N3CCCC[C@H]3CCO)nc12 [Dinaciclib] + Nc1nc2[nH]cc(CCc3ccc(C(=O)N[C@@H](CCC(=O)O)C(=O)O)cc3)c2c(=O)[nH]1 [Pemetrexed] (partner 0.2 µM)
How it was run: as §1

Dinaciclib + Decitabine = compound: CCc1cnn2c(NCc3ccc[n+]([O-])c3)cc(N3CCCC[C@H]3CCO)nc12 [Dinaciclib] + Nc1ncn([C@H]2C[C@H](O)[C@@H](CO)O2)c(=O)n1 [Decitabine] (partner 2 µM)
How it was run: as §1

Dinaciclib + Vorinostat = compound: CCc1cnn2c(NCc3ccc[n+]([O-])c3)cc(N3CCCC[C@H]3CCO)nc12 [Dinaciclib] + O=C(CCCCCCC(=O)Nc1ccccc1)NO [Vorinostat] (partner 1 µM)
How it was run: as §1

Dinaciclib + Olaparib = compound: CCc1cnn2c(NCc3ccc[n+]([O-])c3)cc(N3CCCC[C@H]3CCO)nc12 [Dinaciclib] + O=C(c1cc(Cc2n[nH]c(=O)c3ccccc23)ccc1F)N1CCN(C(=O)C2CC2)CC1 [Olaparib] (partner 8 µM)
How it was run: as §1

## NCI-H2342
Dinaciclib; 0.009487 µM
  relative viability: 1.11
Dinaciclib; 0.03 µM
  relative viability: 0.696
Dinaciclib; 0.09487 µM
  relative viability: 0.368
Dinaciclib; 0.3 µM
  relative viability: 0.301
Dinaciclib + Trametinib; first compound 0.009487 µM
  relative viability: 0.82
Dinaciclib + Trametinib; first compound 0.03 µM
  relative viability: 0.847
Dinaciclib + Trametinib; first compound 0.09487 µM
  relative viability: 0.343
Dinaciclib + Trametinib; first compound 0.3 µM
  relative viability: 0.31
Dinaciclib + Palbociclib; first compound 0.009487 µM
  relative viability: 0.475
Dinaciclib + Palbociclib; first compound 0.03 µM
  relative viability: 0.575
Dinaciclib + Palbociclib; first compound 0.09487 µM
  relative viability: 0.447
Dinaciclib + Palbociclib; first compound 0.3 µM
  relative viability: 0.271
Dinaciclib + Luminespib; first compound 0.009487 µM
  relative viability: 0.715
Dinaciclib + Luminespib; first compound 0.03 µM
  relative viability: 0.511
Dinaciclib + Luminespib; first compound 0.09487 µM
  relative viability: 0.27
Dinaciclib + Luminespib; first compound 0.3 µM
  relative viability: 0.255
Dinaciclib + Foretinib; first compound 0.009487 µM
  relative viability: 0.998
Dinaciclib + Foretinib; first compound 0.03 µM
  relative viability: 0.739
Dinaciclib + Foretinib; first compound 0.09487 µM
  relative viability: 0.273
Dinaciclib + Foretinib; first compound 0.3 µM
  relative viability: 0.274
Dinaciclib + OSI-027; first compound 0.009487 µM
  relative viability: 0.559
Dinaciclib + OSI-027; first compound 0.03 µM
  relative viability: 0.532
Dinaciclib + OSI-027; first compound 0.09487 µM
  relative viability: 0.32
Dinaciclib + OSI-027; first compound 0.3 µM
  relative viability: 0.315
Dinaciclib + Tozasertib; first compound 0.009487 µM
  relative viability: 0.491
Dinaciclib + Tozasertib; first compound 0.03 µM
  relative viability: 0.468
Dinaciclib + Tozasertib; first compound 0.09487 µM
  relative viability: 0.231
Dinaciclib + Tozasertib; first compound 0.3 µM
  relative viability: 0.203
Dinaciclib + Dasatinib; first compound 0.009487 µM
  relative viability: 0.333
Dinaciclib + Dasatinib; first compound 0.03 µM
  relative viability: 0.289
Dinaciclib + Dasatinib; first compound 0.09487 µM
  relative viability: 0.248
Dinaciclib + Dasatinib; first compound 0.3 µM
  relative viability: 0.23
Dinaciclib + Phenformin; first compound 0.009487 µM
  relative viability: 0.737
Dinaciclib + Phenformin; first compound 0.03 µM
  relative viability: 0.543
Dinaciclib + Phenformin; first compound 0.09487 µM
  relative viability: 0.288
Dinaciclib + Phenformin; first compound 0.3 µM
  relative viability: 0.303
Dinaciclib + AZD7762; first compound 0.009487 µM
  relative viability: 0.627
Dinaciclib + AZD7762; first compound 0.03 µM
  relative viability: 0.572
Dinaciclib + AZD7762; first compound 0.09487 µM
  relative viability: 0.206
Dinaciclib + AZD7762; first compound 0.3 µM
  relative viability: 0.225
Dinaciclib + Pemetrexed; first compound 0.009487 µM
  relative viability: 0.851
Dinaciclib + Pemetrexed; first compound 0.03 µM
  relative viability: 0.56
Dinaciclib + Pemetrexed; first compound 0.09487 µM
  relative viability: 0.3
Dinaciclib + Pemetrexed; first compound 0.3 µM
  relative viability: 0.274
Dinaciclib + Decitabine; first compound 0.009487 µM
  relative viability: 0.78
Dinaciclib + Decitabine; first compound 0.03 µM
  relative viability: 0.583
Dinaciclib + Decitabine; first compound 0.09487 µM
  relative viability: 0.269
Dinaciclib + Decitabine; first compound 0.3 µM
  relative viability: 0.284
Dinaciclib + Vorinostat; first compound 0.009487 µM
  relative viability: 0.75
Dinaciclib + Vorinostat; first compound 0.03 µM
  relative viability: 0.685
Dinaciclib + Vorinostat; first compound 0.09487 µM
  relative viability: 0.703
Dinaciclib + Vorinostat; first compound 0.3 µM
  relative viability: 0.323
Dinaciclib + Olaparib; first compound 0.009487 µM
  relative viability: 0.391
Dinaciclib + Olaparib; first compound 0.03 µM
  relative viability: 0.306
Dinaciclib + Olaparib; first compound 0.09487 µM
  relative viability: 0.176
Dinaciclib + Olaparib; first compound 0.3 µM
  relative viability: 0.192
